Reference: ChEMBL document CHEMBL1155091, “Structure, antimicrobial activity and DNA-binding properties of the cobalt(II)-sparfloxacin complex” (2008)
Values after ≈ are worked out from the molar mass of the structure shown.

Key:
DNA = test: Binding affinity to calf thymus DNA; format: nucleic-acid assay; conditions: Bos taurus
Staphylococcus aureus = test: Antimicrobial activity against Staphylococcus aureus; format: functional
Pseudomonas aeruginosa = test: Antimicrobial activity against Pseudomonas aeruginosa; format: functional
Escherichia coli = test: Antimicrobial activity against Escherichia coli; format: functional

Kb (DNA): 17100 M⁻¹
MIC (Staphylococcus aureus): 0.5 µg/mL (≈ 1.27 µM)
MIC (Pseudomonas aeruginosa): 0.25 µg/mL (≈ 0.637 µM)
MIC (Escherichia coli): 8 µg/mL (≈ 20.4 µM)
Structure (SMILES): C[C@@H]1CN(c2c(F)c(N)c3c(=O)c(C(=O)O)cn(C4CC4)c3c2F)C[C@H](C)N1 [SPARFLOXACIN]
